Some test systems named below: PC-3 prostate; OVCAR-5 ovarian; M14 melanoma; LOX IMVI melanoma; HOP-62 NSCLC; SK-MEL-5 melanoma; UO-31 renal; T-47D breast; KM12 colon; NCI/ADR-RES ovarian; EKVX NSCLC; HOP-92 NSCLC; A498 renal; CCRF-CEM leukemia; HS 578T breast; SF-539 CNS; DU-145 prostate.
Common to all, as to test: NCI tumour cell line growth inhibition, 48 h

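How tested: cells in 96-well plates exposed to compound for 48 hours at five concentrations. Definition used: TGI = concentration required for complete inhibition of growth.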

With `Cc1cccc2oc3c(c(=O)c12)CC(O)C(C)(C)O3` (stereo unspecified), the TGI with PC-3 prostate, in the test with OVCAR-5 ovarian, in the test with M14 melanoma, in the test with LOX IMVI melanoma, in the test on HOP-62 NSCLC and in the test on SK-MEL-5 melanoma was greater than 100 µM each time. Further, the TGI in the test with UO-31 renal, in the test with T-47D breast, with KM12 colon, in the test with NCI/ADR-RES ovarian, in the test with EKVX NSCLC and in the test on HOP-92 NSCLC was greater than 100 µM each time. Also, the TGI in the test on A498 renal, in the test on CCRF-CEM leukemia, with HS 578T breast, in the test with SF-539 CNS and in the test on DU-145 prostate was greater than 100 µM each time.

For `N#Cc1c2ccc([N+](=O)[O-])cc2c(=O)n2c1[nH]c1ccc(C(F)(F)F)cc12`, the TGI was greater than 100 µM in the test with PC-3 prostate; greater than 100 µM in the test with OVCAR-5 ovarian; greater than 100 µM in the test with M14 melanoma; 45.6 µM in the test with LOX IMVI melanoma; greater than 100 µM in the test on HOP-62 NSCLC; greater than 100 µM in the test on SK-MEL-5 melanoma. Besides, the TGI in the test on UO-31 renal was 56.9 µM; in the test with T-47D breast it was greater than 100 µM; in the test on KM12 colon, greater than 100 µM; with NCI/ADR-RES ovarian, greater than 100 µM; in the test on EKVX NSCLC, greater than 100 µM; in the test with HOP-92 NSCLC, 51.9 µM. The TGI in the test with A498 renal is greater than 48.8 µM; in the test on CCRF-CEM leukemia, greater than 100 µM; in the test with HS 578T breast it was greater than 100 µM; in the test on SF-539 CNS, greater than 100 µM; in the test with DU-145 prostate, greater than 100 µM.

With `O=C(/C=C1\Sc2ccccc2N=C1CC(=O)c1ccccc1)c1ccccc1`, the TGI in the test with PC-3 prostate was greater than 100 µM; with OVCAR-5 ovarian, 61.4 µM; in the test with M14 melanoma, 36.4 µM; with LOX IMVI melanoma, 21.2 µM; with HOP-62 NSCLC it was 19.8 µM; in the test with SK-MEL-5 melanoma it was 19 µM. The TGI in the test on UO-31 renal was found to be 31.5 µM; in the test with T-47D breast it was 75.5 µM; in the test with KM12 colon it was 24.5 µM; with NCI/ADR-RES ovarian, 18.7 µM; in the test with EKVX NSCLC it was 37.4 µM; with HOP-92 NSCLC it was 21.6 µM. Further, the TGI with A498 renal was greater than 100 µM; with CCRF-CEM leukemia it was 50 µM; in the test on HS 578T breast, greater than 100 µM; with SF-539 CNS, 34.7 µM; in the test with DU-145 prostate it was 89.1 µM.

For `C[C@@H](C[C@H]1OC(C)(C)O[C@@H]1C(C)(C)O)[C@H]1CC=C2[C@]3(C)[C@H](O)C[C@H]4C(C)(C)[C@H](O)CC[C@]4(C)[C@H]3CC[C@]21C`, the TGI was 14.6 µM in the test with PC-3 prostate; 17.1 µM in the test with OVCAR-5 ovarian; 17.6 µM in the test with M14 melanoma; 17.3 µM in the test with LOX IMVI melanoma; 20.7 µM in the test on HOP-62 NSCLC; 18.3 µM in the test with SK-MEL-5 melanoma. In addition, the TGI worked out at 23.7 µM in the test with UO-31 renal; 43.2 µM with T-47D breast; 16 µM in the test on KM12 colon; 21.9 µM in the test on NCI/ADR-RES ovarian; 21.9 µM in the test on EKVX NSCLC; 13.6 µM in the test on HOP-92 NSCLC. The TGI came to 18.5 µM in the test on A498 renal; 14.1 µM with CCRF-CEM leukemia; 16.6 µM in the test on HS 578T breast; 17.2 µM in the test on SF-539 CNS; 28.7 µM in the test on DU-145 prostate.

As to `CC(C)=NOC(=O)CNC(=O)C(Cc1ccccc1)NC(=O)C(C)NC(=O)OC(C)(C)C` (stereo unspecified), the TGI with PC-3 prostate, with OVCAR-5 ovarian, with M14 melanoma, with LOX IMVI melanoma, with HOP-62 NSCLC and with SK-MEL-5 melanoma was greater than 100 µM each time. Further, the TGI with UO-31 renal, in the test on T-47D breast, in the test on KM12 colon, with NCI/ADR-RES ovarian, in the test with EKVX NSCLC and in the test on HOP-92 NSCLC was greater than 100 µM in each case. In addition, the TGI with A498 renal, with CCRF-CEM leukemia, with HS 578T breast, in the test on SF-539 CNS and in the test with DU-145 prostate was greater than 100 µM in each case.

As for `COc1cc(/C=N/N=C(\N)NO)cc(OC)c1OC`, the TGI was greater than 100 µM in the test on PC-3 prostate; greater than 100 µM in the test with OVCAR-5 ovarian; greater than 100 µM in the test on M14 melanoma; greater than 100 µM in the test with LOX IMVI melanoma; greater than 100 µM in the test with HOP-62 NSCLC; 44.7 µM in the test with SK-MEL-5 melanoma. The TGI with UO-31 renal is greater than 100 µM; in the test with T-47D breast it was greater than 100 µM; in the test on KM12 colon, greater than 100 µM; in the test on NCI/ADR-RES ovarian it was 36.3 µM; with EKVX NSCLC, greater than 100 µM; with HOP-92 NSCLC, greater than 100 µM. The TGI with A498 renal was greater than 100 µM; in the test with CCRF-CEM leukemia, greater than 100 µM; in the test with HS 578T breast, greater than 100 µM; in the test on SF-539 CNS, 75.7 µM; in the test with DU-145 prostate, greater than 100 µM.

Turning to `CCC(=O)N/S(=N/S(=O)(=O)c1ccccc1)C(Cl)(Cl)Cl` (stereo unspecified), the TGI in the test on PC-3 prostate, in the test on OVCAR-5 ovarian, in the test with M14 melanoma, in the test with LOX IMVI melanoma, in the test on HOP-62 NSCLC and with SK-MEL-5 melanoma was greater than 100 µM each time. Further, the TGI in the test on UO-31 renal, with T-47D breast, in the test with KM12 colon, with NCI/ADR-RES ovarian, in the test with EKVX NSCLC and in the test on HOP-92 NSCLC was greater than 100 µM throughout. Moreover, the TGI with A498 renal, with CCRF-CEM leukemia, in the test on HS 578T breast, in the test with SF-539 CNS and in the test on DU-145 prostate was greater than 100 µM in each case.

Consider `Cc1ccc2nc3n[nH]c(N)c3nc2c1`, for which the TGI in the test on PC-3 prostate, in the test with OVCAR-5 ovarian, in the test with M14 melanoma, in the test on LOX IMVI melanoma, with HOP-62 NSCLC and in the test with SK-MEL-5 melanoma was greater than 100 µM each time. The TGI in the test with UO-31 renal, with T-47D breast, with KM12 colon, in the test on NCI/ADR-RES ovarian, in the test with EKVX NSCLC and in the test on HOP-92 NSCLC was greater than 100 µM throughout. The TGI in the test with A498 renal, in the test with CCRF-CEM leukemia, in the test with HS 578T breast, in the test with SF-539 CNS and in the test on DU-145 prostate was greater than 100 µM each time.

As to `Clc1ccc(-c2cc(-c3cc4cc(Br)ccc4nc3Cl)on2)cc1`, the TGI is greater than 50 µM with PC-3 prostate; greater than 50 µM with OVCAR-5 ovarian; 37.9 µM with M14 melanoma; 21.4 µM with LOX IMVI melanoma; greater than 50 µM in the test on HOP-62 NSCLC; 19.6 µM with SK-MEL-5 melanoma. In addition, the TGI in the test with UO-31 renal was greater than 50 µM; in the test with T-47D breast, greater than 50 µM; in the test with KM12 colon it was greater than 50 µM; in the test with NCI/ADR-RES ovarian, 37.9 µM; in the test with EKVX NSCLC, 36.2 µM; in the test with HOP-92 NSCLC, greater than 50 µM. The TGI in the test with A498 renal is 41.9 µM; in the test on CCRF-CEM leukemia it was 36.2 µM; in the test with HS 578T breast, greater than 50 µM; with SF-539 CNS it was 17.5 µM; with DU-145 prostate, greater than 50 µM.

For `CC(Oc1ccc(Oc2cnc3ccc(Cl)cc3n2)cc1)C(=O)O` (stereo unspecified), the TGI with PC-3 prostate, in the test on OVCAR-5 ovarian, in the test on M14 melanoma, with LOX IMVI melanoma, in the test on HOP-62 NSCLC and in the test with SK-MEL-5 melanoma was greater than 100 µM throughout. Also, the TGI in the test with UO-31 renal, in the test on T-47D breast, in the test with KM12 colon, in the test with NCI/ADR-RES ovarian, with EKVX NSCLC and in the test with HOP-92 NSCLC was greater than 100 µM throughout. Also, the TGI in the test on A498 renal, in the test on CCRF-CEM leukemia, in the test with HS 578T breast, with SF-539 CNS and in the test with DU-145 prostate was greater than 100 µM in each case.

Turning to `Nc1ccccc1C#CC(=O)c1cccc(C(F)(F)F)c1`, the TGI with PC-3 prostate is 12 µM; in the test with OVCAR-5 ovarian, 23.7 µM; in the test on M14 melanoma, 5.1 µM; in the test with LOX IMVI melanoma it was 4.02 µM; in the test on HOP-62 NSCLC, 27.9 µM; with SK-MEL-5 melanoma, 6.17 µM. The TGI is 2.55 µM in the test on UO-31 renal; greater than 100 µM in the test on T-47D breast; 82.1 µM in the test with KM12 colon; 47.3 µM with NCI/ADR-RES ovarian; 38 µM with EKVX NSCLC; 4.84 µM in the test on HOP-92 NSCLC. In addition, the TGI amounted to 32.5 µM in the test on A498 renal; 4.42 µM with CCRF-CEM leukemia; 6.47 µM in the test with HS 578T breast; 10.9 µM in the test on SF-539 CNS; 37.1 µM with DU-145 prostate.

`O=[N+]([O-])C(/C(Cl)=C(\Cl)Br)=C(/Cl)SCc1ccccc1`: the TGI in the test with PC-3 prostate worked out at 14.3 µM; with OVCAR-5 ovarian, 26.2 µM; with M14 melanoma, 9.15 µM; in the test with LOX IMVI melanoma it was 3.95 µM; in the test on HOP-62 NSCLC, 37.5 µM; in the test on SK-MEL-5 melanoma, 15 µM. The TGI was found to be 5.73 µM in the test on UO-31 renal; 10.9 µM in the test with T-47D breast; 30 µM in the test with KM12 colon; 8.62 µM with NCI/ADR-RES ovarian; 14.5 µM in the test with EKVX NSCLC; 5.34 µM in the test with HOP-92 NSCLC. Further, the TGI is 21.2 µM in the test on A498 renal; 6.25 µM with CCRF-CEM leukemia; 50.7 µM in the test with HS 578T breast; 25.5 µM with SF-539 CNS; 25.7 µM with DU-145 prostate.

For the compound `N#Cc1c(Cl)c2cccnc2n2c1nc1ccccc12`, the TGI in the test on PC-3 prostate is 6.23 µM; in the test with OVCAR-5 ovarian, 44.8 µM; with M14 melanoma, greater than 21.4 µM; with LOX IMVI melanoma, 3.51 µM; in the test on HOP-62 NSCLC, greater than 56.1 µM; with SK-MEL-5 melanoma, 2.6 µM. Moreover, the TGI in the test with UO-31 renal amounted to 3.33 µM; in the test with T-47D breast it was 4.79 µM; with KM12 colon it was 20.3 µM; in the test on NCI/ADR-RES ovarian, 6.55 µM; with EKVX NSCLC, 14.9 µM; with HOP-92 NSCLC it was 3.91 µM. The TGI in the test with A498 renal was determined as 31.1 µM; in the test on CCRF-CEM leukemia, 4.02 µM; with HS 578T breast, 10.5 µM; in the test on SF-539 CNS, 5.4 µM; with DU-145 prostate, 4.03 µM.

The values are drawn from PubChem BioAssay (NCI).
